Values of other authors in patent US20260242330A1, “USE OF AN AMANTADINE MONONITRATE COMPOUND IN MANUFACTURE OF A MEDICAMENT FOR THE PREVENTION AND TREATMENT OF HYPERTENSION” (GUANGZHOU MAGPIE PHARMACEUTICALS CO., LTD., priority 2022, published 2026).

tested on: 24-hour blood pressure in primary hypertension; details: cited from earlier work

Structure (SMILES)	average 24-hour dynamic diastolic pressure decrease [mmHg]	average 24-hour dynamic systolic pressure decrease [mmHg]
CCOC(=O)[C@H](CCc1ccccc1)N[C@H]1CCc2ccccc2N(CC(=O)O)C1=O [benazepril]	3.33	6.74
COCCc1ccc(OCC(O)CNC(C)C)cc1 (centres unmarked) [metoprolol]	4.6	6.66
CCCCC(=O)N(Cc1ccc(-c2ccccc2-c2nnn[nH]2)cc1)[C@H](C(=O)O)C(C)C [valsartan]	6.04	8.08
Cc1cccc(Nc2ccncc2S(=O)(=O)NC(=O)NC(C)C)c1 [tolasemide]	2.42	5.92
